Data set [1] deals with PBMC. As to the kind of experiment: Annexin V/PI flow cytometry viability, PBMC. The data set is classed as cell-based. As to conditions: Homo sapiens, 72 hours, normal cells, Fig 1C. The source says:
Buffy coat preparations from healthy donors were obtained from the Blood Transfusion Center in Leuven, Belgium. Peripheral blood mononuclear cells (PBMC) were isolated by density gradient centrifugation over Lymphoprep™ (Axis Shield PoC AS; density 1.077 ± 0.001 g/mL) and cultured in cell culture medium (DMEM/F12, Gibco Thermo Fisher Scientific) containing 8% fetal bovine serum. Each donor consented to the use of his blood for research purposes.
Cell viability in cancer cell lines treated with compound was measured in a 3-day MTS cell proliferation assay using the CellTiter 96 AQueous Non-Radioactive Cell Proliferation Assay reagent (Promega) according to the manufacturer’s instructions. Absorbance was read at 490 nm on a SaFire II microplate reader (Tecan). CC50 values were calculated by fitting the obtained MTS cell viability data in GraphPad Prism using a 4-parameter log–based fit for inhibitors. Apoptosis induction and cell death upon compound treatment in PBMC was measured using the Alexa Fluor 488 Annexin V/Dead Cell Apoptosis Kit (Thermo Fisher Scientific), with readout on a FACSCanto II flow cytometer (BD Biosciences). For cell cycle analysis, Jurkat cells were seeded at 400,000 cells per well in 12-well tissue culture plates and treated with the test compounds at the indicated concentrations for 24 h. […] The compounds were evaluated in duplo in two independent experiments.

Data set [2] deals with primary cortical neurons. As to the kind of experiment: Neurite outgrowth assay. It counts as cell-based, Sprague-Dawley rat. The note with it: Primary cortical neuron, rat primary cortical neurons, 72 hours. The method, then: Neurite outgrowth assay was performed by Fluofarma (Pessac, France). Primary cortical neurons were harvested from E19 Sprague-Dawley (Janvier Labs) rat embryos, dissociated and plated at 10,000 per well in a tissue-culture treated 96 well plate, in neuronal medium (SM2 matrix independent growth medium, Stem Cell Technologies). Neurons were followed by phase contrast imaging with 1 image acquired every 4 hours, using an Incucyte Zoom (Essen BioScience) with a 20x objective. Four fields per well were acquired. After 24 hours, cells were treated with test compounds and neurite outgrowth was followed for 72 hours post-treatment. All measures were performed in triplicate in one experiment.
Neurite outgrowth kinetics were analyzed from each phase contrast image using the Neurotrack module of the Incucyte Zoom platform. Neurite length and branch points were obtained for each time point. The area under the curve (AUC) was calculated in each experimental condition (GraphPad Prism 6, GraphPad Software).

The test system of data set [3] is microtubule network in A549 cells. Briefly: Immunofluorescence staining of alpha-tubulin in A549 cells. The note with it: 4 hours, 250 nM. The data set is classed as cell-based, human. On the procedure:
Non-small cell lung carcinoma A549 cells were seeded at 50,000 cells/well in an 8-well Nunc™ Lab-Tek™ chambered coverglass slide. After overnight incubation, they were treated with compound or carrier (DMSO) for 4 hours and then fixed with 4% PFA, washed and permeabilized (0.2% Triton X-100 in PBS). Further treatment was performed according to standard immunofluorescence procedures, employing 10% normal goat serum (Thermo Fisher Scientific) as blocking medium and as antibody diluent. Employed antibodies were mouse anti-alpha tubulin (sc-5286, Santa Cruz Biotechnology) at 1:300 dilution and secondary goat anti-mouse IgG conjugated to Alexa Fluor® 488 (A11001, Invitrogen, Thermo Fisher Scientific). Cell nuclei were counterstained with DAPI. Images were collected with a Leica TCS SP5 confocal microscope employing a HCX PL APO 63x (NA 1.2) water immersion objective.

Data set [4] has as its system T-47D. Briefly: NCI60 5-dose screen, T-47D. It counts as cell-based. The note with it: Homo sapiens, T47D; breast cancer; Fig 1D; read-out: Log10 GI50 (T-47D) (converted). On the procedure: (§1) The screening methodology used in the NCI60 Cell 5-Doses screen is described in detail at https://dtp.cancer.gov/discovery_development/nci-60/methodology.htm. Briefly, cells are seeded in 96 well plates at an appropriate density and incubated for 1 day. After 1 day, some of the plates are processed to determine a time zero density. To the remaining plates, compounds are added over a 5-log M concentration range (1 log dilutions from 10^-4M to 10^-8M). Plates are incubated for two additional days, then fixed and stained with sulforhodamine B. Growth inhibition is calculated relative to cells without drug treatment and the time zero control. The GI50 is the concentration of a compound that causes 50% growth inhibition, relative to the no drug control.

Data set [5] relates to EKVX. Briefly: NCI60 5-dose screen, EKVX. The data set is classed as cell-based. The note with it: Homo sapiens, non-small cell lung cancer, Fig 1D, read-out: Log10 GI50 (EKVX) (converted). On the procedure: as §1
Data set [6] relates to RXF 393. As to the kind of experiment: NCI60 5-dose screen, RXF 393. The data set is classed as cell-based. The note with it: Homo sapiens, renal cancer, Fig 1D, read-out: Log10 GI50 (RXF 393) (converted). The method, then:
as §1

Data set [7] deals with NCI-H226. As to the kind of experiment: NCI60 5-dose screen, NCI-H226. The data set is classed as cell-based. The note with it: Homo sapiens, non-small cell lung cancer, Fig 1D, read-out: Log10 GI50 (NCI-H226) (converted). The method, then:
as §1

Data set [8] concerns HT-29 xenograft. As to the kind of experiment: HT-29 xenograft tumor model. As to conditions: for ratio of relative tumor volume of treated mice over control mice (T/C): end of the treatment period. It counts as in vivo. On the procedure:
Seven-week-old NMRI nude male mice were obtained from Janvier Labs (France) and injected with 10^7 HT-29 cells intradermally on the flank. When tumors reached approximately 100 mm^3, mice were distributed into three groups of four to six mice to give the same average tumor size per group and randomly assigned a treatment condition. Mice were injected IV with 4AZA2891 at 15 mg/kg following a Q1D5x2W administration schedule or at 30 mg/kg following a Q2D3x2W administration schedule or with the vehicle (Q1D5x2W). 4AZA2891 was formulated before each injection at 3 mg/ml in 5% glucose with 2 equivalent H3PO4 and warmed at 80°C for 1 h to obtain a clear solution. Tumor volume was measured as (width^2 × length)/2 in mm^3 and weight gain/loss and survival were monitored. T/C ratio was calculated as the ratio of the relative tumor volume average. The health status and behaviour of the animals were assessed daily for well-being. At the end of the experiment (day 35 after treatment intiation)) or in the events of signs of distress, cachexia or excessive tumor growth, the mice were humanely sacrificed by CO2 inhalation followed by cervical dislocation.

Where [9] appears, read: read-out: IC50 for branch point formation.
[10] abbreviates: read-out: IC50 for neurite length.

Like-named read-outs stand apart in the source and are kept apart here.

Regarding `Cc1ccnc(Nc2ccc([N+](=O)[O-])c(NCCN3CCOCC3)n2)c1` [Compound 4AZA2996, N^6-(4-methylpyridin-2-yl)-N^2-(2-morpholinoethyl)-3-nitropyridine-2,6-diamine], the IC50 in data set [1] was found to be 14100 nM; in data set [2] (setting [9]), 7.4 nM; in data set [2] (setting [10]), 9.5 nM. The “effect on microtubule network” value in data set [3] was “disintegrate the microtubule network”. Besides, in data set [4], the GI50 was 26300 nM.
Regarding `Cc1cc(C)cc(Nc2ccc([N+](=O)[O-])c(NCCN3CCOCC3)n2)c1` [Compound 4AZA2891, 6-(3,5-dimethylanilino)-2-(2-morpholinoethylamino)-3-nitropyridine], the IC50 in data set [1] was 76700 nM; in data set [2] (setting [9]), 8 nM; in data set [2] (setting [10]), 10 nM. The values for the GI50 in data set [5], in data set [6] and in data set [7] were 44.7 nM, 38.9 nM and 31.6 nM, respectively. In addition, the “effect on microtubule network” value in data set [3] is on record as “disintegrate the microtubule network”. Also, the “ratio of relative tumor volume of treated mice over control mice (T/C)” value in data set [8] (15 mg/kg IV Q1D5x2W) amounted to 42%; in data set [8] (30 mg/kg IV Q2D3x2W), 34%. For the same molecule, the tumor growth inhibition entry in data set [8] (both dosing regimen (15 mg/kg Q1D5x2W, 30 mg/kg Q2D3x2W), IV) was “significant tumor growth inhibition”. The “tolerability (body weight evolution)” value in data set [8] (both dosing regimens, IV, tumor bearing mice) is on record as “well tolerated”.

Values taken from PMC11542830, “3-nitropyridine analogues as novel microtubule-targeting agents” (PLOS ONE, 2024).
